The values below are quoted from earlier work in publication PMC9885524 (Journal of natural products, 2023).

The data set relates to live SARS-CoV-2. As to conditions: read-out: half-maximal effective concentrations against live SARS-CoV-2 in vitro; depending on the SARS-CoV-2 variant.

`Oc1ccc([C@@H]2c3c(O)cc(O)cc3[C@@H]3c4c(cc(O)cc4[C@H]2[C@@H]2c4cc(O)cc5c4[C@@H](c4cc(O)cc(O)c4[C@H]2c2ccc(O)cc2)[C@H](c2ccc(O)cc2)O5)O[C@H]3c2ccc(O)cc2)cc1` [(−)-hopeaphenol, (−)-Hopeaphenol]: the EC50 was 7.5 to 23 µM.
